Test results as given in PubChem BioAssay AID1963982 (Molecular Pharmacology Branch, DTP, NCI, 2024).
Each block holds one compound with its values, some of them ahead of it.

Test system: 313798-341-R-J2-PDC spheroids, viability
Assay: Anticancer human tumor 313798-341-R-J2-PDC patient-derived cervical squamous cell carcinoma cell line growth inhibition [PI3K]
Settings: spheroids with HUVEC and MSC; for IC50: curve of first compound; for viability, T/C: stronger effect = lower value
In short: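 Tumor cells grown as multi-cell spheroids with HUVEC endothelial cells and MSC fibroblast-like stroma were treated with targeted agents combined with inavolisib, alpelisib, duvelisib or copanlisib. Doses fell in half-log steps from near clinical Cmax, else from 10 microM. Viability was measured.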

[1] = second compound 0.0316 µM, first compound 0.000316 µM
[2] = second compound 0.0316 µM, first compound 0.001 µM
[3] = second compound 0.0316 µM, first compound 0.00316 µM
[4] = second compound 0.0316 µM, first compound 0.01 µM
[5] = second compound 0.0316 µM, first compound 0.0316 µM
[6] = second compound 0.0316 µM, first compound 0.1 µM
[7] = second compound 0.1 µM, first compound 0.000316 µM
[8] = second compound 0.1 µM, first compound 0.001 µM
[9] = second compound 0.1 µM, first compound 0.00316 µM
[10] = second compound 0.1 µM, first compound 0.01 µM
[11] = second compound 0.1 µM, first compound 0.0316 µM
[12] = second compound 0.1 µM, first compound 0.1 µM
[13] = second compound 0.316 µM, first compound 0.000316 µM
[14] = second compound 0.316 µM, first compound 0.001 µM
[15] = second compound 0.316 µM, first compound 0.00316 µM
[16] = second compound 0.316 µM, first compound 0.01 µM
[17] = second compound 0.316 µM, first compound 0.0316 µM
[18] = second compound 0.316 µM, first compound 0.1 µM
[19] = second compound 1 µM, first compound 0.000316 µM
[20] = second compound 1 µM, first compound 0.001 µM
[21] = second compound 1 µM, first compound 0.00316 µM
[22] = second compound 1 µM, first compound 0.01 µM
[23] = second compound 1 µM, first compound 0.0316 µM
[24] = second compound 1 µM, first compound 0.1 µM
[25] = second compound 3.16 µM, first compound 0.000316 µM
[26] = second compound 3.16 µM, first compound 0.001 µM
[27] = second compound 3.16 µM, first compound 0.00316 µM
[28] = second compound 3.16 µM, first compound 0.01 µM
[29] = second compound 3.16 µM, first compound 0.0316 µM
[30] = second compound 3.16 µM, first compound 0.1 µM
[31] = second compound 10 µM, first compound 0.000316 µM
[32] = second compound 10 µM, first compound 0.001 µM
[33] = second compound 10 µM, first compound 0.00316 µM
[34] = second compound 10 µM, first compound 0.01 µM
[35] = second compound 10 µM, first compound 0.0316 µM
[36] = second compound 10 µM, first compound 0.1 µM
[37] = second compound 0.0316 µM, first compound 0.316 µM
[38] = second compound 0.0316 µM, first compound 1 µM
[39] = second compound 0.0316 µM, first compound 3.16 µM
[40] = second compound 0.0316 µM, first compound 10 µM
[41] = second compound 0.1 µM, first compound 0.316 µM
[42] = second compound 0.1 µM, first compound 1 µM
[43] = second compound 0.1 µM, first compound 3.16 µM
[44] = second compound 0.1 µM, first compound 10 µM
[45] = second compound 0.316 µM, first compound 0.316 µM
[46] = second compound 0.316 µM, first compound 1 µM
[47] = second compound 0.316 µM, first compound 3.16 µM
[48] = second compound 0.316 µM, first compound 10 µM
[49] = second compound 1 µM, first compound 0.316 µM
[50] = second compound 1 µM, first compound 1 µM
[51] = second compound 1 µM, first compound 3.16 µM
[52] = second compound 1 µM, first compound 10 µM
[53] = second compound 3.16 µM, first compound 0.316 µM
[54] = second compound 3.16 µM, first compound 1 µM
[55] = second compound 3.16 µM, first compound 3.16 µM
[56] = second compound 3.16 µM, first compound 10 µM
[57] = second compound 10 µM, first compound 0.316 µM
[58] = second compound 10 µM, first compound 1 µM
[59] = second compound 10 µM, first compound 3.16 µM
[60] = second compound 10 µM, first compound 10 µM
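Further: spheroids exposed to compounds for seven days.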
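Wherever viability, T/C is given: 100% = DMSO vehicle control viability.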

IC50 (second compound 0.0316 µM): > 100 nM
IC50 (second compound 0.1 µM): > 100 nM
IC50 (second compound 0.316 µM): > 100 nM
IC50 (second compound 1 µM): > 100 nM
IC50 (second compound 3.16 µM): > 100 nM
IC50 (second compound 10 µM): > 100 nM
SMILES: CC(=O)c1c(C)c2cnc(Nc3ccc(N4CCNCC4)cn3)nc2n(C2CCCC2)c1=O + CC(Nc1ncnc2nc[nH]c12)c1cc2cccc(Cl)c2c(=O)n1-c1ccccc1
viability, T/C [1]: 100%
viability, T/C [2]: 112%
viability, T/C [3]: 98.8%
viability, T/C [4]: 102%
viability, T/C [5]: 101%
viability, T/C [6]: 106%
viability, T/C [7]: 104%
viability, T/C [8]: 104%
viability, T/C [9]: 108%
viability, T/C [10]: 109%
viability, T/C [11]: 103%
viability, T/C [12]: 97.4%
viability, T/C [13]: 99.6%
viability, T/C [14]: 105%
viability, T/C [15]: 91.1%
viability, T/C [16]: 110%
viability, T/C [17]: 95.3%
viability, T/C [18]: 104%
viability, T/C [19]: 108%
viability, T/C [20]: 107%
viability, T/C [21]: 94.1%
viability, T/C [22]: 106%
viability, T/C [23]: 99.2%
viability, T/C [24]: 106%
viability, T/C [25]: 100%
viability, T/C [26]: 108%
viability, T/C [27]: 104%
viability, T/C [28]: 97%
viability, T/C [29]: 100%
viability, T/C [30]: 103%
viability, T/C [31]: 93%
viability, T/C [32]: 94.8%
viability, T/C [33]: 92.6%
viability, T/C [34]: 98.2%
viability, T/C [35]: 92.3%
viability, T/C [36]: 87.5%

IC50 (second compound 0.0316 µM): 58.8 nM
IC50 (second compound 0.1 µM): 64.7 nM
IC50 (second compound 0.316 µM): 65.1 nM
IC50 (second compound 1 µM): 50 nM
IC50 (second compound 3.16 µM): 55.5 nM
IC50 (second compound 10 µM): 25.4 nM
SMILES: CC(C)n1nc(-c2ccc3oc(N)nc3c2)c2c(N)ncnc21 + CC(Nc1ncnc2nc[nH]c12)c1cc2cccc(Cl)c2c(=O)n1-c1ccccc1
viability, T/C [1]: 102%
viability, T/C [2]: 96.8%
viability, T/C [3]: 108%
viability, T/C [4]: 96.5%
viability, T/C [5]: 65.7%
viability, T/C [6]: 36.6%
viability, T/C [7]: 109%
viability, T/C [8]: 92.9%
viability, T/C [9]: 97%
viability, T/C [10]: 101%
viability, T/C [11]: 67.9%
viability, T/C [12]: 39.1%
viability, T/C [13]: 101%
viability, T/C [14]: 94.2%
viability, T/C [15]: 100%
viability, T/C [16]: 97.4%
viability, T/C [17]: 66.4%
viability, T/C [18]: 40.2%
viability, T/C [19]: 100%
viability, T/C [20]: 91.5%
viability, T/C [21]: 99.8%
viability, T/C [22]: 89.7%
viability, T/C [23]: 58.8%
viability, T/C [24]: 36.8%
viability, T/C [25]: 117%
viability, T/C [26]: 94.2%
viability, T/C [27]: 93.7%
viability, T/C [28]: 82.2%
viability, T/C [29]: 55.5%
viability, T/C [30]: 40.6%
viability, T/C [31]: 87.6%
viability, T/C [32]: 91.9%
viability, T/C [33]: 78.5%
viability, T/C [34]: 57.1%
viability, T/C [35]: 51.9%
viability, T/C [36]: 27.1%

IC50 (second compound 0.0316 µM): 8610 nM
IC50 (second compound 0.1 µM): 6790 nM
IC50 (second compound 0.316 µM): 6520 nM
IC50 (second compound 1 µM): 7030 nM
IC50 (second compound 3.16 µM): 6390 nM
IC50 (second compound 10 µM): 4690 nM
SMILES: CCCS(=O)(=O)Nc1ccc(F)c(C(=O)c2c[nH]c3ncc(-c4ccc(Cl)cc4)cc23)c1F + CC(Nc1ncnc2nc[nH]c12)c1cc2cccc(Cl)c2c(=O)n1-c1ccccc1
viability, T/C [5]: 103%
viability, T/C [6]: 103%
viability, T/C [37]: 108%
viability, T/C [38]: 105%
viability, T/C [39]: 96.5%
viability, T/C [40]: 43%
viability, T/C [11]: 112%
viability, T/C [12]: 103%
viability, T/C [41]: 90.3%
viability, T/C [42]: 90.9%
viability, T/C [43]: 92.8%
viability, T/C [44]: 28.1%
viability, T/C [17]: 92.6%
viability, T/C [18]: 96.5%
viability, T/C [45]: 101%
viability, T/C [46]: 104%
viability, T/C [47]: 93.9%
viability, T/C [48]: 23.8%
viability, T/C [23]: 112%
viability, T/C [24]: 99.6%
viability, T/C [49]: 98.8%
viability, T/C [50]: 116%
viability, T/C [51]: 98.8%
viability, T/C [52]: 27.8%
viability, T/C [29]: 107%
viability, T/C [30]: 101%
viability, T/C [53]: 118%
viability, T/C [54]: 106%
viability, T/C [55]: 90.1%
viability, T/C [56]: 24.5%
viability, T/C [35]: 95%
viability, T/C [36]: 101%
viability, T/C [57]: 91.2%
viability, T/C [58]: 83.8%
viability, T/C [59]: 69.2%
viability, T/C [60]: 16.6%

IC50 (second compound 0.0316 µM): > 10000 nM
IC50 (second compound 0.1 µM): > 10000 nM
IC50 (second compound 0.316 µM): > 10000 nM
IC50 (second compound 1 µM): > 10000 nM
IC50 (second compound 3.16 µM): > 10000 nM
IC50 (second compound 10 µM): > 10000 nM
SMILES: CNC(=O)c1ccc(N2C(=S)N(c3ccc(C#N)c(C(F)(F)F)c3)C(=O)C2(C)C)cc1F + CC(Nc1ncnc2nc[nH]c12)c1cc2cccc(Cl)c2c(=O)n1-c1ccccc1
viability, T/C [5]: 104%
viability, T/C [6]: 110%
viability, T/C [37]: 100%
viability, T/C [38]: 92.4%
viability, T/C [39]: 121%
viability, T/C [40]: 98.8%
viability, T/C [11]: 102%
viability, T/C [12]: 101%
viability, T/C [41]: 112%
viability, T/C [42]: 99.4%
viability, T/C [43]: 106%
viability, T/C [44]: 101%
viability, T/C [17]: 94.8%
viability, T/C [18]: 98.3%
viability, T/C [45]: 92.6%
viability, T/C [46]: 98.8%
viability, T/C [47]: 98.3%
viability, T/C [48]: 96.5%
viability, T/C [23]: 95%
viability, T/C [24]: 96.5%
viability, T/C [49]: 97.8%
viability, T/C [50]: 109%
viability, T/C [51]: 100%
viability, T/C [52]: 93.2%
viability, T/C [29]: 111%
viability, T/C [30]: 101%
viability, T/C [53]: 92.9%
viability, T/C [54]: 93.9%
viability, T/C [55]: 97.1%
viability, T/C [56]: 84.8%
viability, T/C [35]: 82.8%
viability, T/C [36]: 86.1%
viability, T/C [57]: 85.5%
viability, T/C [58]: 85.6%
viability, T/C [59]: 88.4%
viability, T/C [60]: 73.2%
